# Experimental data published in PMC5787466, “Accelerated bottom-up drug design platform enables the discovery of novel stearoyl-CoA desaturase 1 inhibitors for cancer therapy” (Oncotarget, 2017).
# pIC50: −log10 of the molar value.
# Assays:
# [1] = tested on: ACHN; test: Proliferation dose-response IC50, ACHN; format: cell-based; conditions: Homo sapiens, proliferative IC50, linear regression modeling of dose-response
# Method: (§1) Error bars indicate standard deviation for n=2 replicates. […] To evaluate inhibition of SCD1 by these molecules, we used LC/MS to quantify changes in SCD1-catalyzed conversion of stearoyl-CoA to oleoyl-CoA in response to drug treatments in vitro using SCD1 protein extracted from murine liver (Figure 3c, Supplementary Figure 2g). […] Synthesis routes and spectral data including NMR and MS are also provided (Supplementary Figures 3-6).
# (§2) Cells were seeded at 5,000 cells/well in clear-bottom 96-well plates in triplicate. Drug treatment was applied at 1:1000 in reduced serum conditions (3%). […] Alternatively, cells were plated 2x10^5/well in 12-well plates (Genesee Scientific) in triplicate prior to drug treatment. After 120-hour treatment, cell number was established using a Coulter Particle Counter (Beckman). Oleic acid-albumin (Sigma Aldrich) was added to media at 5µM, and was applied adjuvant to drug treatment. Drug stocks were prepared in DMSO (Sigma) at 1000x. IC50 dosing per cell line was calculated using CalcuSyn analytical software.
# [2] = tested on: SCD1; conditions: known inhibitor, no reference given; cited from earlier work
# [3] = tested on: Caki2; test: Proliferation dose-response IC50, Caki2; format: cell-based; conditions: Homo sapiens, CAKI-2; proliferative IC50, linear regression modeling of dose-response
# Method: as §1, §2
# [4] = tested on: RCC cell lines; test: Proliferation assay with exogenous oleic acid (OA) rescue; format: cell-based, Human; conditions: cells treated with proliferative IC50 dose, 72 hour, OA 5µg/mL
# Description: Induction of the unfolded protein response (UPR) is a known biological response to SCD1 inhibition in tumor cells. […] The addition of exogenous OA was sufficient to reverse the activation of ATF6 (Figure 4b). Moreover, exogenous OA inhibited SSI-(1-4) mediated upregulation of the UPR markers BiP (heat shock 70 kDa protein) and CHOP (damage inducible transcript 3) protein levels in both A498 and ACHN cells (Figure 4c). Collectively these findings confirm that SSI-(1-4) reliably recapitulates the biological responses observed in tumor cells treated with known SCD1 inhibitors. […] Thus, SSI-4 is not predicted to have any major off-target effects through kinase inhibition (Supplementary Figures 7 and 8).
# Results are presented as relative bioluminescence (BLI). […] Beta-actin is used as a loading control. (d) Proliferative response in patient-derived normal cells, and established tumor cell lines to treatment with MF-438 or SSI-(1-4).
# Cells were seeded at 5,000 cells/well in clear-bottom 96-well plates in triplicate. Drug treatment was applied at 1:1000 in reduced serum conditions (3%). After 72 hours, cells were washed with PBS, and stored at -80 °C prior to analysis using CyQuant® Proliferation Analysis Kit (Invitrogen) er manufacturers’ protocol for relative fluorescence units. […] IC50 dosing per cell line was calculated using CalcuSyn analytical software.
# [5] = tested on: A498; test: Proliferation dose-response IC50, A498; format: cell-based; conditions: Homo sapiens, proliferative IC50, linear regression modeling of dose-response
# Method: as §1, §2
# [6] = tested on: Caki1; test: Proliferation dose-response IC50, Caki1; format: cell-based; conditions: Homo sapiens, CAKI-1; proliferative IC50, linear regression modeling of dose-response
# Method: as §1, §2
# [7] = molecular target: T1, SCD1 protein extracted from murine liver (Mus musculus, UniProt P13516); test: In vitro SCD1 enzymatic inhibition by LC/MS (stearoyl-CoA to oleoyl-CoA, liver microsomes); format: biochemical; conditions: n=2
# T1 construct: Microsomes were isolated from murine liver using Microsome Isolation Kit (BioVision); from tissue; host or cells: murine liver microsomes
# T1 sequence (P13516 1-355): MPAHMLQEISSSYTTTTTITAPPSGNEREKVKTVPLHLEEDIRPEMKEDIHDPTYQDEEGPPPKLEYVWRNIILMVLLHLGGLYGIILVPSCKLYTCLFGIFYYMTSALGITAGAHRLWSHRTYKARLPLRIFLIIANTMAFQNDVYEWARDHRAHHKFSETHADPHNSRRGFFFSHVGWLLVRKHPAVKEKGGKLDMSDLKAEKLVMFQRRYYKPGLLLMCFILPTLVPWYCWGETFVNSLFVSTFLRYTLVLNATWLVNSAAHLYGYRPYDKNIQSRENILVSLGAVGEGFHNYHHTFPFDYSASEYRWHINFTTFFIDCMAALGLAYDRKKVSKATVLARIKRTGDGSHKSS
# Description: as §1, with “After synthesis feasibility and cost analysis, we synthesized 38 of the selected compounds.” for “Error bars indicate standard deviation for n=2 replicates.”
# Microsomes were isolated from murine liver using Microsome Isolation Kit (BioVision) per the manufacturer protocol. […] To quantify biotransformation of ^13C18-stearoyl CoA to ^13C18-oleoyl CoA for drug treatments relative to vehicle controls, supernatants were evaluated using the LC/MS^2 acyl CoA quantitation method of Magnes et al. and adapting selected reaction monitoring (SRM) for isotope-labeled acyl CoAs. […] SRM signal areas for isotope-labeled acyl CoAs were measured relative to the heptadecanoyl CoA I.S. using XCalibur software (Thermo), and percent enzyme inhibition determined by comparing ^13C18-oleoyl CoA quantities between treatment and DMSO control assays. […]
IC50 [1] [µM],IC50 [7] [nM],SMILES,pIC50 [2],IC50 [3] [µM],rescue of proliferation by exogenous oleic acid (OA) [4],IC50 [5] [µM],IC50 [6] [µM]
0.08,,"CNC(=O)COc1cncc(C(=O)N2CC[C@H](Oc3ccccc3Cl)C2)c1 [ChemBL375265, reference compound]",6.40,0.5,fully restored proliferation,5,1
0.006,1.1,"Cc1nnc(-c2ccc(N3CCC(Oc4ccccc4C(F)(F)F)CC3)nn2)s1 [MF-438, 2-methyl-5-(6-(4-(2-(trifluoromethyl)phenoxy)piperidin-1-yl)pyridazin-3-yl)-1,3,4-thiadiazole, reference compound]",,0.012,fully restored proliferation,0.008,0.007
